Patent US8901118B2, “Compounds and methods for kinase modulation, and indications therefor” (Plexxikon Inc., priority 2010, dated 2014)

Tests used:
MV-4-11 cells = experiment: MV-4-11 (leukemia) cell proliferation assay (ATPlite); assay type: cell-based; conditions: Homo sapiens, MV4-11, read-out: Inhibition of Cell Proliferation IC50, MV-4-11
How it was run: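 BaF3 cells expressing BCR fusions were plated at 10,000 cells/well without IL-3, and MV-4-11 cells at 25,000 cells/well. Cells were treated the next day with an 8-point 1:3 dilution series (top 10 μM final) and incubated 3 days at 37 °C. ATPlite luminescence gave cell number, from which IC50 was fitted.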

[1] = Relative solubility by turbidity in aqueous buffers (pH 1.5, 4.5, 6.8, 7.4); assay type: physicochemical; conditions: for turbidity threshold (L, M, H) 1.4: pH 1.5 (SGF); for turbidity threshold (L, M, H) 4.5: pH 4.5 (SIF); for turbidity threshold (L, M, H) 6.8: pH 6.8 (SIF); for turbidity threshold (L, M, H) 7.4: pH 7.4 (HEPES)
How it was run: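 Twofold DMSO dilutions of a 25 mM stock were spiked into SGF (0.5M NaCl, pH 1.5), SIF (0.05M NaH2PO4, pH 4.5 and 6.8) or HEPES buffer (10 mM HEPES, 150 mM NaCl, pH 7.4). Absorbance was read at 490, 535 and 650 nm. The endpoint is the concentration crossing O.D. 0.01, averaged across wavelengths.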

| Structure (SMILES) | IC50 (MV-4-11 cells) | turbidity threshold (L, M, H) 1.4 [1] | turbidity threshold (L, M, H) 4.5 [1] | turbidity threshold (L, M, H) 6.8 [1] | turbidity threshold (L, M, H) 7.4 [1] |
| --- | --- | --- | --- | --- | --- |
| CCn1cc(Nc2ccc(Cc3c[nH]c4ncnc(OCCOC)c34)c(F)n2)cn1 [Compound P-4014, (1-Ethyl-1H-pyrazol-4-yl)-{6-fluoro-5-[4-(2-methoxy-ethoxy)-7H-pyrrolo[2,3-d]pyrimidin-5-ylmethyl]-pyridin-2-yl}-amine] | < 1000 nM | M (moderate solubility if the threshold concentration is 31.3 μM to 250 μM) | M (moderate solubility if the threshold concentration is 31.3 μM to 250 μM) | M (moderate solubility if the threshold concentration is 31.3 μM to 250 μM) | M (moderate solubility if the threshold concentration is 31.3 μM to 250 μM) |
| COCCOc1ncnc2[nH]cc(Cc3ccc(Nc4ccc(C)nc4)nc3F)c12 [Compound P-4015, {6-Fluoro-5-[4-(2-methoxy-ethoxy)-7H-pyrrolo[2,3-d]pyrimidin-5-ylmethyl]-pyridin-2-yl}-(6-methyl-pyridin-3-yl)-amine] | < 1000 nM | M (moderate solubility if the threshold concentration is 31.3 μM to 250 μM) | M (moderate solubility if the threshold concentration is 31.3 μM to 250 μM) | M (moderate solubility if the threshold concentration is 31.3 μM to 250 μM) | M (moderate solubility if the threshold concentration is 31.3 μM to 250 μM) |
| CCc1ccc(Nc2ccc(Cc3c[nH]c4ncnc(OCCOC)c34)c(F)n2)cn1 [Compound P-4016, (6-Ethyl-pyridin-3-yl)-{6-fluoro-5-[4-(2-methoxy-ethoxy)-7H-pyrrolo[2,3-d]pyrimidin-5-ylmethyl]-pyridin-2-yl}-amine] | < 100 nM | M (moderate solubility if the threshold concentration is 31.3 μM to 250 μM) | H (high solubility if the threshold concentration is >250 μm) | M (moderate solubility if the threshold concentration is 31.3 μM to 250 μM) | M (moderate solubility if the threshold concentration is 31.3 μM to 250 μM) |
| CCOc1ncnc2[nH]cc(Cc3ccc(Nc4ccc(C)nc4)nc3F)c12 [Compound P-4017, [5-(4-Ethoxy-7H-pyrrolo[2,3-d]pyrimidin-5-ylmethyl)-6-fluoro-pyridin-2-yl]-(6-methyl-pyridin-3-yl)-amine] | < 1000 nM | M (moderate solubility if the threshold concentration is 31.3 μM to 250 μM) | M (moderate solubility if the threshold concentration is 31.3 μM to 250 μM) | M (moderate solubility if the threshold concentration is 31.3 μM to 250 μM) | L (low solubility if the threshold concentration is <31.3 μM) |
| CCOc1ncnc2[nH]cc(Cc3ccc(Nc4ccc(OC)nc4)nc3F)c12 [Compound P-4018, [5-(4-Ethoxy-7H-pyrrolo[2,3-d]pyrimidin-5-ylmethyl)-6-fluoro-pyridin-2-yl]-(6-methoxy-pyridin-3-yl)-amine] | < 1000 nM | M (moderate solubility if the threshold concentration is 31.3 μM to 250 μM) | L (low solubility if the threshold concentration is <31.3 μM) | L (low solubility if the threshold concentration is <31.3 μM) | L (low solubility if the threshold concentration is <31.3 μM) |
| COCCOc1ncnc2[nH]cc(Cc3ccc(Nc4ccc(OC)nc4)nc3F)c12 [Compound P-4019, {6-Fluoro-5-[4-(2-methoxy-ethoxy)-7H-pyrrolo[2,3-d]pyrimidin-5-ylmethyl]-pyridin-2-yl}-(6-methoxy-pyridin-3-yl)-amine] | < 1000 nM | M (moderate solubility if the threshold concentration is 31.3 μM to 250 μM) | L (low solubility if the threshold concentration is <31.3 μM) | L (low solubility if the threshold concentration is <31.3 μM) | L (low solubility if the threshold concentration is <31.3 μM) |
